# From ChEMBL document CHEMBL1212752, “Efficacy of posaconazole in a murine disseminated infection by Candida tropicalis” (2010)
# Calls of active or inactive are those of the source. No cut-off for these calls is given here.
# Tests used:
# Candida tropicalis [1] = experiment: Antifungal activity against Candida tropicalis FMR 8896 assessed as inhibition of growth by broth dilution method; format: functional
# Candida tropicalis [2] = experiment: Antifungal activity against Candida tropicalis FMR 9726 infected in immunosuppressed OF1 mouse assessed as prolongation of mouse survival at 25 mg/kg, po bid for 5 days; format: functional, organism-based; parameters: dose 25 mg/kg
# Candida tropicalis [3] = experiment: Antifungal activity against Candida tropicalis FMR 8896 assessed as compound concentration causing =>99% reduction in microbial growth; format: functional
# Candida tropicalis [4] = experiment: Antifungal activity against Candida tropicalis FMR 8897 assessed as inhibition of growth by broth dilution method; format: functional
# Candida tropicalis [5] = experiment: Antifungal activity against Candida tropicalis FMR 10333 assessed as inhibition of growth by broth dilution method; format: functional
# Candida tropicalis [6] = experiment: Antifungal activity against Candida tropicalis FMR 8898 assessed as compound concentration causing =>99% reduction in microbial growth; format: functional
# Candida tropicalis [7] = experiment: Antifungal activity against Candida tropicalis FMR 10333 assessed as compound concentration causing =>99% reduction in microbial growth; format: functional
# Candida tropicalis [8] = experiment: Antifungal activity against Candida tropicalis FMR 8897 assessed as compound concentration causing =>99% reduction in microbial growth; format: functional
# Candida tropicalis [9] = experiment: Antifungal activity against Candida tropicalis FMR 8895 infected in immunosuppressed OF1 mouse assessed as prolongation of mouse survival at 25 mg/kg, po bid for 5 days; format: functional, organism-based; parameters: dose 25 mg/kg
# Candida tropicalis [10] = experiment: Antifungal activity against Candida tropicalis FMR 10237 assessed as compound concentration causing =>99% reduction in microbial growth; format: functional
# Candida tropicalis [11] = experiment: Antifungal activity against Candida tropicalis FMR 10239 infected in immunosuppressed OF1 mouse assessed as prolongation of mouse survival at 25 mg/kg, po bid for 5 days; format: functional, organism-based; parameters: dose 25 mg/kg
# Candida tropicalis [12] = experiment: Antifungal activity against Candida tropicalis FMR 9727 infected in immunosuppressed OF1 mouse assessed as prolongation of mouse survival at 25 mg/kg, po bid for 5 days; format: functional, organism-based; parameters: dose 25 mg/kg
# Candida tropicalis [13] = experiment: Antifungal activity against Candida tropicalis FMR 8895 infected in immunosuppressed OF1 mouse assessed as reduction in fungal tissue burden in mouse kidney at 50 mg/kg, po qd for 5 days; format: functional, organism-based; parameters: dose 50 mg/kg
# Candida tropicalis [14] = experiment: Antifungal activity against Candida tropicalis FMR 10239 infected in immunosuppressed OF1 mouse assessed as reduction in fungal tissue burden in mouse spleen at 50 mg/kg, po qd for 5 days; format: functional, organism-based; parameters: dose 50 mg/kg
# Candida tropicalis [15] = experiment: Antifungal activity against Candida tropicalis FMR 10235 assessed as inhibition of growth by broth dilution method; format: functional
# Candida tropicalis [16] = experiment: Antifungal activity against Candida tropicalis FMR 10239 infected in immunosuppressed OF1 mouse assessed as reduction in fungal tissue burden in mouse kidney at 50 mg/kg, po qd for 5 dayss; format: functional, organism-based; parameters: dose 50 mg/kg
# Candida tropicalis [17] = experiment: Antifungal activity against Candida tropicalis FMR 10241 assessed as inhibition of growth by broth dilution method; format: functional
# Candida tropicalis [18] = experiment: Antifungal activity against Candida tropicalis FMR 10231 assessed as inhibition of growth by broth dilution method; format: functional
# Candida tropicalis [19] = experiment: Antifungal activity against Candida tropicalis FMR 10234 assessed as compound concentration causing =>99% reduction in microbial growth; format: functional
# Candida tropicalis [20] = experiment: Antifungal activity against Candida tropicalis FMR 10239 assessed as compound concentration causing =>99% reduction in microbial growth; format: functional
# Candida tropicalis [21] = experiment: Antifungal activity against Candida tropicalis FMR 10232 assessed as compound concentration causing =>99% reduction in microbial growth; format: functional
# Candida tropicalis [22] = experiment: Antifungal activity against Candida tropicalis FMR 10236 assessed as inhibition of growth by broth dilution method; format: functional
# Candida tropicalis [23] = experiment: Antifungal activity against Candida tropicalis FMR 10238 assessed as compound concentration causing =>99% reduction in microbial growth; format: functional
# Candida tropicalis [24] = experiment: Antifungal activity against Candida tropicalis FMR 10239 infected in immunosuppressed OF1 mouse assessed as reduction in fungal tissue burden in mouse kidney at 25 mg/kg, po bid for 5 dayss; format: functional, organism-based; parameters: dose 25 mg/kg
# Candida tropicalis [25] = experiment: Antifungal activity against Candida tropicalis FMR 9727 infected in immunosuppressed OF1 mouse assessed as prolongation of mouse survival at 50 mg/kg, po qd for 5 days; format: functional, organism-based; parameters: dose 50 mg/kg
# Candida tropicalis [26] = experiment: Antifungal activity against Candida tropicalis FMR 10231 assessed as compound concentration causing =>99% reduction in microbial growth; format: functional
# Candida tropicalis [27] = experiment: Antifungal activity against Candida tropicalis FMR 8895 assessed as compound concentration causing =>99% reduction in microbial growth; format: functional
# Candida tropicalis [28] = experiment: Antifungal activity against Candida tropicalis FMR 10232 assessed as inhibition of growth by broth dilution method; format: functional
# Candida tropicalis [29] = experiment: Antifungal activity against Candida tropicalis FMR 10238 assessed as inhibition of growth by broth dilution method; format: functional
# Candida tropicalis [30] = experiment: Antifungal activity against Candida tropicalis FMR 8895 infected in immunosuppressed OF1 mouse assessed as reduction in fungal tissue burden in mouse spleen at 25 mg/kg, po bid for 5 days; format: functional, organism-based; parameters: dose 25 mg/kg
# Candida tropicalis [31] = experiment: Antifungal activity against Candida tropicalis FMR 9726 infected in immunosuppressed OF1 mouse assessed as reduction in fungal tissue burden in mouse kidney at 25 mg/kg, po bid for 5 days; format: functional, organism-based; parameters: dose 25 mg/kg
# Candida tropicalis [32] = experiment: Antifungal activity against Candida tropicalis FMR 10234 assessed as inhibition of growth by broth dilution method; format: functional
smiles,measurement,setting,value
CC[C@@H]([C@H](C)O)n1ncn(-c2ccc(N3CCN(c4ccc(OC[C@@H]5CO[C@@](Cn6cncn6)(c6ccc(F)cc6F)C5)cc4)CC3)cc2)c1=O [POSACONAZOLE],MIC50,Candida tropicalis [1],0.125 µg/mL
same,Activity,Candida tropicalis [2],Active
same,MFC,Candida tropicalis [3],> 16 µg/mL
same,MIC50,Candida tropicalis [4],0.06 µg/mL
same,MIC50,Candida tropicalis [5],0.06 µg/mL
same,MFC,Candida tropicalis [6],> 16 µg/mL
same,MFC,Candida tropicalis [7],> 16 µg/mL
same,MFC,Candida tropicalis [8],> 16 µg/mL
same,Activity,Candida tropicalis [9],Active
same,MFC,Candida tropicalis [10],> 16 µg/mL
same,Activity,Candida tropicalis [11],Active
same,Activity,Candida tropicalis [12],Active
same,Activity,Candida tropicalis [13],inactive
same,Activity,Candida tropicalis [14],Active
same,MIC50,Candida tropicalis [15],0.125 µg/mL
same,Activity,Candida tropicalis [16],Active
same,MIC50,Candida tropicalis [17],0.125 µg/mL
same,MIC50,Candida tropicalis [18],0.06 µg/mL
same,MFC,Candida tropicalis [19],> 16 µg/mL
same,MFC,Candida tropicalis [20],1 µg/mL
same,MFC,Candida tropicalis [21],> 16 µg/mL
same,MIC50,Candida tropicalis [22],0.06 µg/mL
same,MFC,Candida tropicalis [23],> 16 µg/mL
same,Activity,Candida tropicalis [24],Active
same,Activity,Candida tropicalis [25],Active
same,MFC,Candida tropicalis [26],> 16 µg/mL
same,MFC,Candida tropicalis [27],> 16 µg/mL
same,MIC50,Candida tropicalis [28],0.06 µg/mL
same,MIC50,Candida tropicalis [29],0.06 µg/mL
same,Activity,Candida tropicalis [30],inactive
same,Activity,Candida tropicalis [31],Active
same,MIC50,Candida tropicalis [32],0.06 µg/mL
